# Patent US20240050392A1, “COMPOSITIONS AND METHODS FOR IMPROVED TREATMENT OF PLATINUM-BASED CHEMOTHERAPEUTIC RESISTANT TUMORS” (THE REGENTS OF THE UNIVERSITY OF THE COLORADO, A BODY …, priority 2021, published 2024)
# Assays:
# [1] = test system: bladder tumor-derived organoids; assay: Tumor-derived organoid drug screening (alamarBlue viability, reseeding); format: cell-based, human
# Procedure: Three independent organoid models derived from patients that failed between 4 to 6 cycles of neoadjuvant gemcitabine plus cisplatin chemotherapy (FIG. 10A). The organoids mimicked the morphological and genomic characteristics of the tumor from which they were derived (FIG. 10B). These organoids were treated with increasing doses of cisplatin and 20 μM of tosedostat.
# Tumor-derived Organoids. Culture of the organoids. Human bladder tissue was obtained from the Erasmus MC Bladder Cancer Center, Rotterdam, the Netherlands. Bladder tumor-derived organoids from biopsies obtained through TURBT or cystectomy. Briefly, bladder tissues were washed with Advanced DMEM/F12 (Gibco) supplemented with 10 mM HEPES (Gibco), 1% GlutaMax (Gibco) and 100 μg/ml primocin (InvivoGen), henceforth Ad+++. Tissue was minced and incubated at 37° C. with the digestion solution (collagenase 2.5 mg/ml in EBSS) and isolated cells were passed through […] strainer (Falcon), washed with Ad+++ and seeded in 50 μl drops of BME (R&D system) containing 10000-15000 cells in 24 well suspension plates (Greiner). Bladder tumor organoids were cultured in a culture medium containing Ad+++ supplemented with 1×B-27 (Gibco), 1.25 mM N-acetylcysteine (Sigma), 10 mM nicotinamide, 20 μM TGFβ receptor inhibitor A83-01, 100 ng/ml recombinant human FGF10 (Peprotech), 25 ng/ml recombinant human FGF7 (Peprotech), 12.5 ng/ml recombinant human FGF2 (Peprotech), 10 μM Y27632 Rho Kinase (ROCK) Inhibitor (Sigma) and conditioned media for recombinant Rspondin (2.5% v/v), and Wnt3A (2.5% v/v). The medium was changed every three days. Organoids were passaged at a 1:3 to 1:6 ratio every 7 days using cell dissociation solution-non enzymatic (Sigma) and plated in fresh BME matrix droplets.
# Drug screening. Organoids were collected 7 days after passaging, passed through a […] strainer and 1000 organoids were seeded per well of a 48-well plate in BME matrix droplets. After 24 hours cisplatin (Sigma) resuspended in PBS was added at different concentrations (2, 10, 25, and 50 μM) with or without tosedostat (20 μM) (Tocris) resuspended in DMSO. All wells were adjusted to contain less than 0.7% DMSO. Organoids were cultured for the first 6 days in the presence of drugs followed by drug withdrawal, where organoids were grown in organoid culture media for 10 days. The entire content of the wells in different treatment groups was collected, washed and reseeded after disaggregation in fresh BME, and cultured for 6 days. Cell viability was assayed using alamarBlue (Invitrogen) according to the manufacturer's instructions after 6 days of drug incubation, 10 days of drug withdrawal, and 6 days post reseeding. Viability data was normalized using organoid wells treated with vehicle control.
# KU1919-GemCis cells = assay: Metabolomics of intracellular taurine; format: cell-based, human; settings: KU1919-GemCis cells with knockdown of NPEPPS, 10 μM cisplatin
# Procedure: Given that VRACs transport cisplatin and carboplatin and finding NPEPPS in complex with VRAC subunits (FIGS. 4C-4D), NPEPPS may be a negative regulator of VRAC activity, consequently reducing import of intracellular cisplatin. Thus, the impact of NPEPPS on osmolytes known to be transported through VRACs was assessed.
# Metabolomics. Sample preparation. Cell lines were cultured for several passages in IMDM+10% FBS (IMDM10). Prior to experiment, cells were cultured in IMDM10 to ˜80% confluence and then dissociated. For dissociation, cells were washed once with room temperature PBS and then incubated with PBS+0.05% Trypsin-EDTA for 10-15 minutes. Cells were neutralized with IMDM10 and then fully dissociated by gentle pipetting. After dissociation, cells were counted by Trypan blue staining and then replated at 1×10^6 cells. 24 hours after plating, cells were treated with either IMDM10 or IMDM10+10 μM cisplatin. Day 0 cell cultures were immediately processed for metabolomics analysis. […] Cells were suspended in PBS, centrifuged a second time, and then resuspended in PBS and counted. […]
# Data generation and analysis. […] Supernatants were clarified by centrifugation (10 minutes, 18,000 g, 4° C.) and 10 μL analyzed using a Thermo Vanquish UHPLC coupled to a Thermo Q Exactive mass spectrometer. […]
# [2] = cited from earlier work
# [3] = test system: KU1919-GemCis and KU1919 parental cells; assay: Drug dose response with NPEPPS knockdown or overexpression; format: cell-based, human
# NPEPPS mRNA = assay: Cisplatin induced NPEPPS mRNA expression (RT-qPCR); format: cell-based, human
# Procedure: Cisplatin induced NPEPPS mRNA expression. Total RNA was isolated from cells using Trizol (ThermoFisher) and/or phenol-chloroform based extraction methods. Residual DNA was digested with DNAse I (Life technologies). cDNA synthesis was performed using Superscript II Reverse Transcriptase kit (Life technologies) using random primers. RT-qPCR reactions were performed on a CFX Connect Real-Time PCR Detection System thermocycler (Bio-Rad) using TaqMan gene expression assays for NPEPPS and HMBS as a housekeeping gene (ThermoFisher) in combination with SensiFAST Probe No-ROX Kit (Bioline, Toronto, Canada). Expression data was calculated using 2^−ΔΔCt. All cell line experiments were performed in triplicate from independently grown cells. Comparisons at the indicated dose of cisplatin were made to the control treatment (0 μM cisplatin) using a t-test.
smiles,measurement,setting,value
N.N.[Cl][Pt][Cl] [cisplatin],organoid growth after reseeding in new growth conditions,[1]; 2 μM cisplatin alone,able to re-grow
same,organoid killing,[1]; cisplatin alone at 25 μM,all organoids were killed
same,intracellular levels of taurine,KU1919-GemCis cells,reduced even further
same,maximum concentration of cisplatin in patients,[2],14 µM
same,effect of NPEPPS knockdown on drug response,"[3]; KU1919-GemCis cells, stable NPEPPS shRNA knockdown",preferentially enhanced response
same,effect of NPEPPS overexpression on drug response,[3]; KU1919 parental lines overexpressing NPEPPS,increased treatment resistance
same,NPEPPS mRNA,NPEPPS mRNA; KU1919-Par and KU1919-GemCis cells after 24 hours of cisplatin treatment,increased
same,NPEPPS induction,NPEPPS mRNA; patient-derived organoids treated with cisplatin,induced NPEPPS in a dose dependent manner
